This test concerns the target Peptidoglycan D,D-transpeptidase FtsI (Pseudomonas aeruginosa (strain PA7), UniProt A6VB91). Nature of the test: IC50 Assay. As to conditions: pH 7.2; 25 °C. As to the method:
An appropriate amount of enzyme (4uM) was pre-incubated with the (5R)- or 5(S)-penicilloic acid in the assay buffer (50mM HEPES-NaOH buffer (pH 7.2) supplemented with 0.01% Triton-100) at room temperature for 10 min. Nitrocefin (100uM) was added to initiate the assay. The IC50 values were determined using the software package Graph Prism 5.01.
Sequence of Peptidoglycan D,D-transpeptidase FtsI (A6VB91 whole entry): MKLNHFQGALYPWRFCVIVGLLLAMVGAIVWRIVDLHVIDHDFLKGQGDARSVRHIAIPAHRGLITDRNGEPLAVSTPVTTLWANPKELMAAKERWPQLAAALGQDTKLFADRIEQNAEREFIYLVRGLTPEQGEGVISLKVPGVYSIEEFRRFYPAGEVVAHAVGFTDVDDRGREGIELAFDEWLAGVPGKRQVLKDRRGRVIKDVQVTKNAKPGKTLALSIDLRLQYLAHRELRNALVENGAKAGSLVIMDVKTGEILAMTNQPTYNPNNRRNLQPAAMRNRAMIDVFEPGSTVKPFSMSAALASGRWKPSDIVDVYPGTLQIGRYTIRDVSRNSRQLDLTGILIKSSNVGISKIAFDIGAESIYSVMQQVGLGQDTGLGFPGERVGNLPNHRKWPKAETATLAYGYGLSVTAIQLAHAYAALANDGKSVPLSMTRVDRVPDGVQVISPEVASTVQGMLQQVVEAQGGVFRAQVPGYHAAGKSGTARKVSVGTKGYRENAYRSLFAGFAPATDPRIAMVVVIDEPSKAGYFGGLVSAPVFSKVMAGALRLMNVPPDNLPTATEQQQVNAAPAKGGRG
One may read the IC50 as the point on the concentration scale where inhibition reaches its midpoint. Low readings indicate greater potency, high ones weaker potency. In the case of `CCN1CCN(C(=O)N[C@@H](C(=O)N[C@@H]2C(=O)N3[C@@H]2SC(C)(C)[C@@H]3C(=O)O)c2ccccc2)C(=O)C1=O`, it took 0.166 µM to reach half-maximal inhibition (IC50). Under `CCN1CCN(C(=O)N[C@@H](C(=O)N[C@H](C(=O)O)[C@@H]2N[C@@H](C(=O)O)C(C)(C)S2)C2C=CC=CC2)C(=O)C1=O` (stereo partly drawn) [(5R)-PA] stands 196 µM; under `CCN1CCN(C(=O)N[C@@H](C(=O)N[C@H](C(=O)O)[C@H]2N[C@@H](C(=O)O)C(C)(C)S2)C2C=CC=CC2)C(=O)C1=O` (stereo partly drawn) [(5S)-PA], 126 µM.

For the origin of these results see BindingDB's records for doi:10.1021/cb400200h (University of Oxford, 2013).
